Results as given in patent US12344879B2, “Transgenic bacteria with expanded amino acid usage and nucleic acid molecules for use in the same” (BOARD OF REGENTS, THE UNIVERSITY OF TEXAS SYSTEM, priority 2015, dated 2025).
Where “and” joins values, the source holds several entries; their conditions need not be identical. Equal values may be shown once.

Tests used:
[1] = test system: NMC-A β-lactamase reporter (C69X); assay: NMC-A β-lactamase reporter assay (ampicillin resistance by amber suppression with selenocysteine); format: cell-based, E. coli DHΔabc; conditions: DHΔabc; for ampicillin concentration supporting growth (β-lactamase activity): NMC-A C69X reporter, co-expressed with SelA
Excerpt: A method of genetic selection capable of discriminating different levels of selenocysteine incorporation was developed. To specifically ‘addict’ a reporter protein to selenocysteine rather than serine, the NMC-A β-lactamase from Enterobacter cloacae was used. […] Then cysteine 69 was replaced with an amber stop codon (X69; FIG. 1a) for library selection, hypothesizing that the incorporation of selenocysteine and the formation of a selenyl-sulfhydryl bond would restore activity. (Swardn et al., 1998)
To eliminate any crosstalk between the tRNA^Sec library and the endogenous selenocysteine incorporation machinery, the selA, selB and selC genes (encoding SelA, SelB and tRNA^Sec respectively) were deleted from E. coli DH10B (designated DHΔabc). Cells containing the reporter plasmid pNMC-A C69X and the accessory plasmid pRSF-eSelA (expressing SelA) were transformed with plasmid pMB1-ZU containing the tRNA^Sec antideterminant library. Transformants were plated on media containing a gradient of ampicillin concentrations for selection of mutants capable of selenocysteine-specific suppression. The single colonies that arose covered a range of ampicillin concentrations. […] Of these tRNA^Sec variants, only G7-C66:U49-G65:C50-U64 was detected at the two highest ampicillin concentration (200 and 250 μg·ml^−1).
The tRNA^Sec antideterminant library was generated by enzymatic inverse PCR using oligonucleotide primers (Table 2) to randomize the six positions identified as the main antideterminant for EF-Tu binding. Following self ligation for 16 hours, DNA was ethanol precipitated with GlycoBlue (Ambion) and transformed by electroporation into E. coli DHΔabc containing the plasmids pNMC-A C69X and pRSF-eSelA. Transformants were diluted in 200 ml LB medium containing 12.5 μg·mL^−1 Zeocin, 6.25 μg·mL^−1 tetracycline and 25 μg·mL^−1 kanamycin and incubated overnight. Following overnight growth, cells were diluted 1/50 in LB medium containing 6.25 μg·mL^−1 Zeocin, 3.75 μg·mL^−1 tetracycline, 12.5 μg·mL^−1 kanamycin, 1 μM Na2SeO3 and 20 μg·mL^−1 L-cysteine and incubated for one hour. A series of 250 μl aliquots of cells were plated on LB agar containing 6.25 μg·mL^−1 Zeocin, 3.75 μg·mL^−1 tetracycline, 12.5 […], 1 μM Na2SeO3 and 20 μg·mL^−1 L-cysteine and 50-300 μg·mL^−1 ampicillin in 50 μg·mL^−1 increments. After 20 hours at 37° C. individual colonies were observed on plates containing 50-200 μg·mL^−1 ampicillin. Plasmid DNA was isolated from a selection of colonies from all plates and tRNA^Sec mutations determined by Sanger sequencing.
NotI/NcoI fragments containing tRNA^SecUx were subcloned into pRSF-eSelA to generate pRSF-UX-eSelA. pRSF-U-eSelA variants described in Table 1 were transformed into E. coli DHΔabc containing the reporter plasmid pNMC-A C69TAG. DHΔabc cells containing pNMC-A and pRSFDuet-1 were used as a positive control. DHΔabc cells harboring pNMC-A C69S and pRSF-UX-eSelA, and pNMC-A C69TAG and pRSF-UX-ΔSelA were used as controls for selenocysteine dependent β-lactamase activity. Transformants were cultured overnight in LB medium containing 6.25 μg·mL^−1 tetracycline, 25 μg·mL^−1 kanamycin, 1 μM Na2SeO3 and 20 […]. Following overnight growth, cells were diluted 1/10 in LB medium containing antibiotics, selenite and L-cysteine and incubated for three hours. […]

[2] = test system: NMC-A β-lactamase reporter (C69X C238X); assay: NMC-A β-lactamase reporter assay in strain lacking release factor 1; format: cell-based, E. coli RTΔA; conditions: RF1-deficient background, two amber codons
[3] = test system: E. coli formate dehydrogenase H (FdhH); assay: Benzyl viologen assay; format: cell-based, E. coli DHΔabcF; conditions: FdhH U140TAG or U140S reporter, co-expressed with SelA, anaerobic
Experimental: The tRNA^Sec variant containing the G7-C66:U49-G65:C50-U64 (SEQ ID NO: 18) antideterminant sequence was designated tRNA^SecUx and was compared with the previously designed chimera (tRNA^UTu) and with a tRNA^Sec derivative designed to have an antideterminant region that should tightly bind EF-Tu (tRNA^UG; FIG. 2a). […] The hybrid tRNA^UTu incorporated selenocysteine and could grow on 75 μg·ml^−1. […] To further confirm tRNA^SecUx incorporated selenocysteine in response to amber stop codons, a standard colorimetric assay was employed based on the activity of the endogenous E. coli selenoprotein formate dehydrogenase H (FdhH) (FIG. 2b).
E. coli DH10B cells containing pRSFDuet-1 and pcat-pheS were used as a positive control. DHΔabcF cells harboring p15A-fdhF U140S and pRSF-UX-eSelA, and p15A-fdhF U140X and pRSF-UX-ΔSelA were used as controls for selenocysteine dependent formate dehydrogenase activity. Transformants were grown overnight at 37° C. in LB medium supplemented with 12.5 μg·mL^−1 tetracycline and 50 μg·mL^−1 kanamycin. Overnight cultures were diluted 1/20 in a final volume of 2 ml and incubated for three hours. Cultures were normalized to OD600=0.5 and 5 μl aliquots were dotted on LB agar plates containing 3.75 μg·mL^−1 tetracycline, 12.5 μg·mL^−1 kanamycin, 5 mM sodium formate, 10 μM Na2MoO4, 1 μM Na2SeO3 and 20 μg·mL^−1 L-cysteine. Plates were incubated at 37° C. for 3 h under aerobic conditions and then transferred to anaerobic conditions at 37° C. for 60 h. Upon removal from the anaerobic chamber, plates were immediately overlaid with agar containing 1 mg·mL^−1 benzyl viologen, 250 mM sodium formate and 25 mM KH2PO4 at pH 7.0. Plates were photographed within 1 h of overlaying.

Substance | ampicillin concentration supporting growth (β-lactamase activity) [1] | ampicillin concentration at which the tRNA variant was detected in library selection ([1]; antideterminant library, pNMC-A C69X, pRSF-eSelA) | formation of functional diselenide bond (U69 and U238) in NMC-A [2] | FdhH activity (reduction of benzyl viologen) [3]
tRNA^SecUx: Evolved E. coli tRNA^Sec variant with the G7-C66:U49-G65:C50-U64 antideterminant sequence and CUA anticodon | up to 400 μg·ml^−1 | 200 µg/mL and 250 µg/mL | could now support the formation of a functional diselenide bond | produced active FdhH
tRNA^UTu (GGAAGATGTGGCCGAGCGGTTGAAGGCACCGGT; expressed or natural sequence) | 75 µg/mL |  |  | produced active FdhH
